Patent publication US20190127381A1, “SUBSTITUTED FUSED PYRIMIDINONE COMPOUNDS” (TORRENT PHARMACEUTICALS LIMITED, priority 2016, published 2019)

Experiments:
[1] = target: T1, purified recombinant human PI3K enzyme γ (Homo sapiens, UniProt P48736); test: Inhibition of PI3-Kinase enzymatic activity (HTRF enzyme assay), γ; type: biochemical; details: 1 μM compound; PI3K γ 100 ng/well; PIP2 10 μM; ATP 50 μM; read-out: Percentage inhibition of PI3K activity, γ
T1 construct: purchased Invitrogen, USA
In short: (§1)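 HTRF assay with compound at 1 μM (1.0% DMSO), recombinant human PI3Kδ (50 ng/well) or γ (100 ng/well) and PIP2 (10 μM), preincubated 15 min at room temperature. ATP (δ 200 μM, γ 50 μM) was then added for 30 min at room temperature. Percent inhibition was derived from the 665/615 nm signal ratio.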

[2] = target: T2, purified recombinant human PI3K enzyme δ (Homo sapiens, UniProt O00329); test: Inhibition of PI3-Kinase enzymatic activity (HTRF enzyme assay), δ; type: biochemical; details: 1 μM compound; PI3K δ 50 ng/well; PIP2 10 μM; ATP 200 μM; read-out: Percentage inhibition of PI3K activity, δ
T2 construct: purchased Invitrogen, USA
In short: as §1

T1 sequence (P48736 whole entry): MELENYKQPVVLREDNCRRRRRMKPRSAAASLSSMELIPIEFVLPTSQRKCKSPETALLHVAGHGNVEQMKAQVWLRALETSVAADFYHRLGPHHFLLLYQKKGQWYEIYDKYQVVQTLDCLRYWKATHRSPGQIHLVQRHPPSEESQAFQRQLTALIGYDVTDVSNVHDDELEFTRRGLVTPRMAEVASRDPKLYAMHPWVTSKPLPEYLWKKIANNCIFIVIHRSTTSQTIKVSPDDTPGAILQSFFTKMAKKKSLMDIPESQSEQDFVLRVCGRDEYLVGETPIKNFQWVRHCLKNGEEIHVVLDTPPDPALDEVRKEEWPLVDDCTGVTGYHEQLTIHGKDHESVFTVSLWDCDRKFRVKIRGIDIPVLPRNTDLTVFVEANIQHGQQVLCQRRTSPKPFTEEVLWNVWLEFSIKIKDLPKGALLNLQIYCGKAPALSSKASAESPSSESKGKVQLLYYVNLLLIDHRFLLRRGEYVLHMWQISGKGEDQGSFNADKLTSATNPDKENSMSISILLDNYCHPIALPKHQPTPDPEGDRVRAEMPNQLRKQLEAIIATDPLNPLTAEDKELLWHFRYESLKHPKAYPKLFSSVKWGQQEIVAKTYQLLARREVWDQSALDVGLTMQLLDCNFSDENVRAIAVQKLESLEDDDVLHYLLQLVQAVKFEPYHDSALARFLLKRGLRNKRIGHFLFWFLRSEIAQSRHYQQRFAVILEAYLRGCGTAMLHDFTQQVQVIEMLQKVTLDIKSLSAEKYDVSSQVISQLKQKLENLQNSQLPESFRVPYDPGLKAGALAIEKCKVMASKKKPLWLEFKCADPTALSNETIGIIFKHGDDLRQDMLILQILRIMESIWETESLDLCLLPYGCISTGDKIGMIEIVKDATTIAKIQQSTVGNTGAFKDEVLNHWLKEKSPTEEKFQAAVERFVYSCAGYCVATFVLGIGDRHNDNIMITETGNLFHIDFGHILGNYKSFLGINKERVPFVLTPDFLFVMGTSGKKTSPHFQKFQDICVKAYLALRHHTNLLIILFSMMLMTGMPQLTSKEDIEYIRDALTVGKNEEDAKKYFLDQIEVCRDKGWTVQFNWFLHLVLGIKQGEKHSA
T2 sequence (O00329 whole entry): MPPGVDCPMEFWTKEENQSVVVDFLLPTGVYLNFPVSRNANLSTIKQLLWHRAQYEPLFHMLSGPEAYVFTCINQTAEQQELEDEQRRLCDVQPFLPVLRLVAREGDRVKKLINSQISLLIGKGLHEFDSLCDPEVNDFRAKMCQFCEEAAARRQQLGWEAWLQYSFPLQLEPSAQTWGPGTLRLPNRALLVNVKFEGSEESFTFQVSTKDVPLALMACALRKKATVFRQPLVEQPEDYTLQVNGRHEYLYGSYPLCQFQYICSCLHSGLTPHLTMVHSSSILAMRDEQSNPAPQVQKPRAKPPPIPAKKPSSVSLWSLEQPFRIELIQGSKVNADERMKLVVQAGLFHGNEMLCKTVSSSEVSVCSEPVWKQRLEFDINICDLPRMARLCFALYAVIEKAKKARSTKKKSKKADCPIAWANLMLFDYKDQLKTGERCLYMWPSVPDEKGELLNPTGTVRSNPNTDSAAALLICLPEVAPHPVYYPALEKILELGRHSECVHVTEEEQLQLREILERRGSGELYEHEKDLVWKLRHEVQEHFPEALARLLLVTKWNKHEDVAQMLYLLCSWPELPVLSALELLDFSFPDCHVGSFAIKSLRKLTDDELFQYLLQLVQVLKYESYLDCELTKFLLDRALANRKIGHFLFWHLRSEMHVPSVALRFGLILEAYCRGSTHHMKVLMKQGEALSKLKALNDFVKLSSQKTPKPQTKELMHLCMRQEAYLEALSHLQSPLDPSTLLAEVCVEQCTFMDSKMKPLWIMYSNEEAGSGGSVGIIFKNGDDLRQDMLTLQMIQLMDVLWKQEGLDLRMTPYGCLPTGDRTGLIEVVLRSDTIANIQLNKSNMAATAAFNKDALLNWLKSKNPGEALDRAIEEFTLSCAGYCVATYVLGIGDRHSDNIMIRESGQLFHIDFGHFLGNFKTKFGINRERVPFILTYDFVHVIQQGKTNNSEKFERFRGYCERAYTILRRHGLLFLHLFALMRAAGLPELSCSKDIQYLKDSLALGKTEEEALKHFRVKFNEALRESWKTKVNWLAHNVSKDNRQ
T2 sequence (P27986 whole entry partner): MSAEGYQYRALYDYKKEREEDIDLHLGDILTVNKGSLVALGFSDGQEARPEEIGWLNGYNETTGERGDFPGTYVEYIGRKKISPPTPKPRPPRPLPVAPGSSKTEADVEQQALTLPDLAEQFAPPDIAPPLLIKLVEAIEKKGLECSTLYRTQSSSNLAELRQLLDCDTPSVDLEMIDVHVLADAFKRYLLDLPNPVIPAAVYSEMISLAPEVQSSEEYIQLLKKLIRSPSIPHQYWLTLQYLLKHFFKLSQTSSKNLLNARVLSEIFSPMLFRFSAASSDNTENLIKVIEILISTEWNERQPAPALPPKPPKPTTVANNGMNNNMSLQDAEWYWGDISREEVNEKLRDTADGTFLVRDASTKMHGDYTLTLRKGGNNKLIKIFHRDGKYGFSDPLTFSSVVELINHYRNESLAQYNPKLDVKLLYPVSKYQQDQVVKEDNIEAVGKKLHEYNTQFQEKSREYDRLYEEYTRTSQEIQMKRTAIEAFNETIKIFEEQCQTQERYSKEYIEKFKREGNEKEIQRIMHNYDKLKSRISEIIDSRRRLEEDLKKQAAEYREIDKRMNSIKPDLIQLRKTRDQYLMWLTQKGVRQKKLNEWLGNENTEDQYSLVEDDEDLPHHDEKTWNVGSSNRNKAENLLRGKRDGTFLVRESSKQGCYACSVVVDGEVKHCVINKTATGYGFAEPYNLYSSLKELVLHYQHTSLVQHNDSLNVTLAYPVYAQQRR

Row | Compound | inhibition at 1 µM [1] | inhibition at 1 µM [2]
1 | Cc1ccc(C)n1-n1c(Cn2nc(-c3ccc(O)c4c3CC(C)(C)O4)c3c(N)ncnc32)nc2cccc(C#CCN3CCN(C)CC3)c2c1=O [compound 57, 2-{[4-amino-3-(7-hydroxy-2,2-dimethyl-2,3-dihydro-1-benzofuran-4-yl)-1H-pyrazolo[3,4-d]pyrimidin-1-yl]methyl}-3-(2,5-dimethyl-1H-pyrrol-1-yl)-5-[3-(4-methylpiperazin-1-yl)prop-1-yn-1-yl]quinazolin-4(3H)-one] | 60 to 80% | 80 to 100%
2 | CCn1cc(-c2cccc3nc([C@H](C)n4nc(-c5ccc(O)c6c5CC(C)(C)O6)c5c(N)ncnc54)n(-n4cccc4)c(=O)c23)cn1 [compound 99, 2-{(1S)-1-[4-amino-3-(7-hydroxy-2,2-dimethyl-2,3-dihydro-1-benzofuran-4-yl)-1H-pyrazolo[3,4-d]pyrimidin-1-yl]ethyl}-5-(1-ethyl-1H-pyrazol-4-yl)-3-(1H-pyrrol-1-yl)quinazolin-4(3H)-one] | 40 to 60% | 80 to 100%
3 | Cn1nccc1-c1cccc2nc(Cn3nc(-c4ccc(O)c5c4CC(C)(C)O5)c4c(N)ncnc43)n(C3(c4ccccc4)CC3)c(=O)c12 [compound 30, 2-{[4-amino-3-(7-hydroxy-2,2-dimethyl-2,3-dihydro-1-benzofuran-4-yl)-1H-pyrazolo[3,4-d]pyrimidin-1-yl]methyl}-5-(1-methyl-1H-pyrazol-5-yl)-3-(1-phenylcyclopropyl)quinazolin-4(3H)-one] | 60 to 80% | 80 to 100%
4 | Cc1ccccc1C1(n2c(Cn3nc(-c4ccc(O)c5c4CC(C)(C)O5)c4c(N)ncnc43)nc3cccc(-c4ccnn4C)c3c2=O)CC1 [compound 59, 2-{[4-amino-3-(7-hydroxy-2,2-dimethyl-2,3-dihydro-1-benzofuran-4-yl)-1H-pyrazolo[3,4-d]pyrimidin-1-yl]methyl}-3-[1-(2-methylphenyl)cyclopropyl]-5-(1-methyl-1H-pyrazol-5-yl)quinazolin-4(3H)-one] | 60 to 80% | 80 to 100%
5 | Cc1cccc(C2(n3c(Cn4nc(-c5ccc(O)c6c5CC(C)(C)O6)c5c(N)ncnc54)nc4cccc(C#CCO)c4c3=O)CC2)c1 [compound 31, 2-{[4-amino-3-(7-hydroxy-2,2-dimethyl-2,3-dihydro-1-benzofuran-4-yl)-1H-pyrazolo[3,4-d]pyrimidin-1-yl]methyl}-5-(3-hydroxyprop-1-yn-1-yl)-3-[1-(3-methylphenyl)cyclopropyl]quinazolin-4(3H)-one] | 60 to 80% | 80 to 100%
6 | Cc1ccccc1C1(n2c(Cn3nc(-c4ccc(O)c5c4CC(C)(C)O5)c4c(N)ncnc43)nc3cccc(Cl)c3c2=O)CC1 [compound 55, 2-{[4-amino-3-(7-hydroxy-2,2-dimethyl-2,3-dihydro-1-benzofuran-4-yl)-1H-pyrazolo[3,4-d]pyrimidin-1-yl]methyl}-5-chloro-3-[1-(2-methylphenyl)cyclopropyl]quinazolin-4(3H)-one] | 60 to 80% | 80 to 100%
7 | Cn1cc(-c2cccc3nc(Cn4nc(-c5ccc(O)c6c5CC(C)(C)O6)c5c(N)ncnc54)n(C4(c5ccsc5)CC4)c(=O)c23)cn1 [compound 69, 2-{[4-amino-3-(7-hydroxy-2,2-dimethyl-2,3-dihydro-1-benzofuran-4-yl)-1H-pyrazolo[3,4-d]pyrimidin-1-yl]methyl}-5-(1-methyl-1H-pyrazol-4-yl)-3-[1-(thiophen-3-yl)cyclopropyl]quinazolin-4(3H)-one] | 60 to 80% | 80 to 100%
8 | CC1(C)Cc2c(-c3nn(Cc4nc5cccc(Br)c5c(=O)n4-n4cccc4)c4ncnc(N)c34)ccc(O)c2O1 [Compound No. 9, 2-{[4-amino-3-(7-hydroxy-2,2-dimethyl-2,3-dihydro-1-benzofuran-4-yl)-1H-pyrazolo[3,4-d]pyrimidin-1-yl]methyl}-5-bromo-3-(1H-pyrrol-1-yl)quinazolin-4(3H)-one] | 80 to 100% | 80 to 100%
9 | Cc1cc(C)n(-n2c(Cn3nc(-c4ccc(O)c5c4CC(C)(C)O5)c4c(N)ncnc43)nc3cccc(C)c3c2=O)n1 [compound 11, 2-{[4-amino-3-(7-hydroxy-2,2-dimethyl-2,3-dihydro-1-benzofuran-4-yl)-1H-pyrazolo[3,4-d]pyrimidin-1-yl]methyl}-3-(3,5-dimethyl-1H-pyrazol-1-yl)-5-methylquinazolin-4(3H)-one] | 60 to 80% | 80 to 100%
10 | Cc1ccc(C)n1-n1c(Cn2nc(-c3ccc(O)c4c3CC(C)(C)O4)c3c(N)ncnc32)nc2cccc(C#CCN3CCOCC3)c2c1=O [compound 80, 2-{[4-amino-3-(7-hydroxy-2,2-dimethyl-2,3-dihydro-1-benzofuran-4-yl)-1H-pyrazolo[3,4-d]pyrimidin-1-yl]methyl}-3-(2,5-dimethyl-1H-pyrrol-1-yl)-5-[3-(morpholin-4-yl)prop-1-yn-1-yl]quinazolin-4(3H)-one] | 60 to 80% | 80 to 100%
11 | CC1(C)Cc2c(-c3nn(Cc4nc5cccc(-c6ccncc6)c5c(=O)n4-n4cccc4)c4ncnc(N)c34)ccc(O)c2O1 [compound 18, 2-{[4-amino-3-(7-hydroxy-2,2-dimethyl-2,3-dihydro-1-benzofuran-4-yl)-1H-pyrazolo[3,4-d]pyrimidin-1-yl]methyl}-5-(pyridin-4-yl)-3-(1H-pyrrol-1-yl)quinazolin-4(3H)-one] | 60 to 80% | 80 to 100%
12 | Cc1cc(C)n(-n2c(Cn3nc(-c4ccc(O)c5c4CC(C)(C)O5)c4c(N)ncnc43)nc3cccc(Cl)c3c2=O)n1 [compound 12, 2-{[4-amino-3-(7-hydroxy-2,2-dimethyl-2,3-dihydro-1-benzofuran-4-yl)-1H-pyrazolo[3,4-d]pyrimidin-1-yl]methyl}-5-chloro-3-(3,5-dimethyl-1H-pyrazol-1-yl)quinazolin-4(3H)-one] | 80 to 100% | 80 to 100%
13 | Cc1ccc(C)n1-n1c(Cn2nc(-c3ccc(O)c4c3CC(C)(C)O4)c3c(N)ncnc32)nc2cccc(C#CC3CC3)c2c1=O [compound 43, 2-{[4-amino-3-(7-hydroxy-2,2-dimethyl-2,3-dihydro-1-benzofuran-4-yl)-1H-pyrazolo[3,4-d]pyrimidin-1-yl]methyl}-5-(cyclopropylethynyl)-3-(2,5-dimethyl-1H-pyrrol-1-yl)quinazolin-4(3H)-one] | 80 to 100% | 80 to 100%
14 | CC1(C)Cc2c(-c3nn(Cc4nc5cccc(C#CC6CC6)c5c(=O)n4C4(c5ccsc5)CC4)c4ncnc(N)c34)ccc(O)c2O1 [compound 76, 2-{[4-amino-3-(7-hydroxy-2,2-dimethyl-2,3-dihydro-1-benzofuran-4-yl)-1H-pyrazolo[3,4-d]pyrimidin-1-yl]methyl}-5-(cyclopropylethynyl)-3-[1-(thiophen-3-yl)cyclopropyl]quinazolin-4(3H)-one] | 80 to 100% | 80 to 100%
15 | CCn1cc(-c2cccc3nc(Cn4nc(-c5ccc(O)c6c5CCC6)c5c(N)ncnc54)n(-n4c(C)ccc4C)c(=O)c23)cn1 [compound 94, 2-{[4-amino-3-(7-hydroxy-2,3-dihydro-1H-inden-4-yl)-1H-pyrazolo[3,4-d]pyrimidin-1-yl]methyl}-3-(2,5-dimethyl-1H-pyrrol-1-yl)-5-(1-ethyl-1H-pyrazol-4-yl)quinazolin-4(3H)-one] | 80 to 100% | 80 to 100%
16 | CC1(C)Cc2c(-c3nn(Cc4nc5cccc(C#CCO)c5c(=O)n4C4(c5ccccc5)CC4)c4ncnc(N)c34)ccc(O)c2O1 [compound 24, 2-{[4-amino-3-(7-hydroxy-2,2-dimethyl-2,3-dihydro-1-benzofuran-4-yl)-1H-pyrazolo[3,4-d]pyrimidin-1-yl]methyl}-5-(3-hydroxyprop-1-yn-1-yl)-3-(1-phenylcyclopropyl)quinazolin-4(3H)-one] | 80 to 100% | 80 to 100%
17 | Cc1cccc2nc(C(C)n3nc(-c4ccc(O)c5c4CC(C)(C)O5)c4c(N)ncnc43)n(-n3cccc3)c(=O)c12 (racemic) [compound 96, 2-{(1RS)-1-[4-amino-3-(7-hydroxy-2,2-dimethyl-2,3-dihydro-1-benzofuran-4-yl)-1H-pyrazolo[3,4-d]pyrimidin-1-yl]ethyl}-5-methyl-3-(1H-pyrrol-1-yl)quinazolin-4(3H)-one] | 80 to 100% | 80 to 100%
18 | Cc1ccc(C)n1-n1c(Cn2nc(-c3ccc(O)c4c3CC(C)(C)O4)c3c(N)ncnc32)nc2cccc(-c3ccnn3C)c2c1=O [compound 41, 2-{[4-amino-3-(7-hydroxy-2,2-dimethyl-2,3-dihydro-1-benzofuran-4-yl)-1H-pyrazolo[3,4-d]pyrimidin-1-yl]methyl}-3-(2,5-dimethyl-1H-pyrrol-1-yl)-5-(1-methyl-1H-pyrazol-5-yl)quinazolin-4(3H)-one] | 80 to 100% | 80 to 100%
19 | Cc1ccc(C)n1-n1c(Cn2nc(-c3ccc(O)c4c3CC(C)(C)O4)c3c(N)ncnc32)nc2cccc(C#CCN3CCNC(=O)C3)c2c1=O [compound 68, 2-{[4-amino-3-(7-hydroxy-2,2-dimethyl-2,3-dihydro-1-benzofuran-4-yl)-1H-pyrazolo[3,4-d]pyrimidin-1-yl]methyl}-3-(2,5-dimethyl-1H-pyrrol-1-yl)-5-[3-(3-oxopiperazin-1-yl)prop-1-yn-1-yl]quinazolin-4(3H)-one] | 80 to 100% | 80 to 100%
